Patent US7285566B2, “Resistance-repellent retroviral protease inhibitors” (priority 2002, dated 2007)

What was measured:
[1] = biological target: D30N mutant HIV protease (Human immunodeficiency virus type 1 group M subtype B, UniProt P03367, D530N); assay: Effect of D30N protease mutation on inhibitor binding
[2] = test system: HIV-1UIC-P62; assay: Sensitivity of compound 1-selected HIV-1 (passage 62) to PIs; assay type: cell-based; details: for IC50 fold greater than that of HIV-1NL4-3: HIV-1UIC-P62 (passage 62 with 2 μM 1) vs parental HIV-1NL4-3; for sensitivity compared with the parental HIV-1NL4-3: HIV-1UIC-P62
[3] = test system: highly cross-resistant clinical HIV-1 strains; assay: In vitro activity against highly PI-resistant clinical HIV-1 strains from AIDS patients; assay type: cell-based; details: for potency against the multidrug resistant strains of HIV: multidrug resistant vs wild type strains
Protocol: The sensitivities of HIV-1LAI, HIV-1Ba-L, HIV-2EHO and the primary HIV-1 isolates against various drugs were determined as previously described with minor modifications (Shiraska et al., Proc. Natl. Acad. Sci. USA, 92, 2398-2402 (1995)).

Compound | effect of D30N mutation on binding [1] | IC50 fold greater than that of HIV-1NL4-3 [2] [fold] | potency against the multidrug resistant strains of HIV [3] | sensitivity compared with the parental HIV-1NL4-3 [2] | level of resistance of the clinical strains ([3]; compared to wild-type clinical strain HIV-1ERS104pre)
COc1ccc(S(=O)(=O)N(CC(C)C)C[C@@H](O)[C@H](Cc2ccccc2)NC(=O)O[C@H]2CO[C@H]3OCC[C@H]32)cc1 [Compound 1] | no effect | – | – | – | –
Cc1c(O)cccc1C(=O)N[C@@H](CSc1ccccc1)[C@H](O)CN1C[C@H]2CCCC[C@H]2C[C@H]1C(=O)NC(C)(C)C [Compound 7, Nelfinavir] | – | 5 | dramatically less potent | – | –
CC(C)c1nc(CN(C)C(=O)N[C@H](C(=O)N[C@@H](Cc2ccccc2)C[C@H](O)[C@H](Cc2ccccc2)NC(=O)OCc2cncs2)C(C)C)cs1 [Compound 5, Ritonavir] | – | – | dramatically less potent | as sensitive | –
CC(C)(C)NC(=O)[C@@H]1C[C@@H]2CCCC[C@@H]2CN1C[C@@H](O)[C@H](Cc1ccccc1)NC(=O)[C@H](CC(N)=O)NC(=O)c1ccc2ccccc2n1 [Compound 4, Saquinavir] | – | – | dramatically less potent | as sensitive | 3-31 fold
CC(C)(C)NC(=O)[C@@H]1CN(Cc2cccnc2)CCN1C[C@@H](O)C[C@@H](Cc1ccccc1)C(=O)N[C@H]1c2ccccc2C[C@H]1O [Compound 6, Indinavir] | – | 7 | dramatically less potent | – | –
CC(C)CN(C[C@@H](O)[C@H](Cc1ccccc1)NC(=O)O[C@H]1CCOC1)S(=O)(=O)c1ccc(N)cc1 [Compound 2, Amprenavir] | – | – | dramatically less potent | – | –
